Source: patent US20080045567A1, “Therapeutic Agent for Hyperlipemia and Therapeutic Agent for Diabetes” (Kowa Co., Ltd, priority 2004, published 2008)

Columns and labels:
blood triglycerides [1] = assay: Lowering of blood triglycerides by combined administration of sodium salt of compound A and calcium salt of atorvastatin in rats (Example 2); assay type: in vivo, male Wistar strain rats; settings: rat; for blood triglycerides in comparison with the control group (in words): orally 14 days, Dunnett's test; for Reduction rate of blood triglycerides (%): blood collected after 18 h fast, vs control group
Source text: Six-week-old male Wistar strain rats (Nippon Ikagaku Jikken Doubutsu Kabushiki Kaisha) were used for the test. Throughout the experimental period, the rats were fed in a rearing room maintained at a light-dark cycle (light period lit by room lamp: 7 am to 7 pm), a temperature of 23±3 degrees C., and a humidity of 55±15%, and were allowed free access to solid feed (CE-2: CLEA Japan, Inc.) and tap water.
Calcium salt of pitavastatin and sodium salt of the compound A were suspended in an aqueous solution of 0.5% by mass of sodium carboxymethylcellulose (Iwai Chemicals Co., Ltd.) and prepared so that the dose amount became 2 mL/kg. Since calcium salt of pitavastatin contained 9.43% by mass of water, 1.1-fold by mass of the dose amount was weighed to correct. The suspension was refrigerated (4 degrees C.) and kept in a light-resistant bottle, and its preparation was carried out every 7 days.
Thirty-two rats were divided into four groups (eight rats per each group) so that blood total cholesterol and blood triglycerides are averaged. That is, the four groups consisted of a control group, a group of calcium salt of pitavastatin alone (10 mg/kg), a group of sodium salt of the compound A alone (1 mg/kg), and a group of a combination of calcium salt of pitavastatin (10 mg/kg) and sodium salt of the compound A (1 mg/kg). The drugs were orally administered once a day (at 4 pm) for 14 days repeatedly, and the control group received orally the aqueous solution of 0.5% by mass of sodium carboxymethylcellulose at 2 mL/kg. All the groups were fasted for 18 hours after the final administration. Then, blood was collected and blood triglycerides were determined.
The effect of lowering blood triglycerides by combined administration of sodium salt of the compound A and calcium salt of atorvastatin was determined as in Example 1.

blood triglycerides [2] = assay: Lowering of blood triglycerides by combined administration of sodium salt of compound A and calcium salt of pitavastatin in rats (Example 1); assay type: in vivo, male Wistar strain rats; settings: rat; for blood triglycerides in comparison with the control group (in words): orally 14 days, Dunnett's test; for Reduction rate of blood triglycerides (%): blood collected after 18 h fast, vs control group
Experimental: The effect of lowering blood triglycerides by combined administration of sodium salt of the compound A and calcium salt of pitavastatin was determined by the following method. Six-week-old male Wistar strain rats (Nippon Ikagaku Jikken Doubutsu Kabushiki Kaisha) were used for the test. Throughout the experimental period, the rats were fed in a rearing room maintained at a light-dark cycle (light period lit by room lamp: 7 am to 7 pm), a temperature of 23±3 degrees C., and a humidity of 55±15%, and were allowed free access to solid feed (CE-2: CLEA Japan, Inc.) and tap water. Calcium salt of pitavastatin and sodium salt of the compound A were suspended in an aqueous solution of 0.5% by mass of sodium carboxymethylcellulose (Iwai Chemicals Co., Ltd.) and prepared so that the dose amount became 2 mL/kg. Since calcium salt of pitavastatin contained 9.43% by mass of water, 1.1-fold by mass of the dose amount was weighed to correct. The suspension was refrigerated (4 degrees C.) and kept in a light-resistant bottle, and its preparation was carried out every 7 days. Thirty-two rats were divided into four groups (eight rats per each group) so that blood total cholesterol and blood triglycerides are averaged. That is, the four groups consisted of a control group, a group of calcium salt of pitavastatin alone (10 mg/kg), a group of sodium salt of the compound A alone (1 mg/kg), and a group of a combination of calcium salt of pitavastatin (10 mg/kg) and sodium salt of the compound A (1 mg/kg). The drugs were orally administered once a day (at 4 pm) for 14 days repeatedly, and the control group received orally the aqueous solution of 0.5% by mass of sodium carboxymethylcellulose at 2 mL/kg. All the groups were fasted for 18 hours after the final administration. Then, blood was collected and blood triglycerides were determined. Multigroup comparison between the control group and drug-administered group was performed with Dunnett's multiple comparison test after Bartlett's test for analysis of variance, and a significance level lower than 5% was considered to indicate significant difference.

[3] = 1 mg/kg orally once a day for 14 days

O=C(O)C(Cl)(Cl)CCCCCCCCCCc1ccc(Cl)cc1 [Compound A Na, 12-(4-chlorophenyl)-2,2-dichlorododecanoic acid] was tested, and the “blood triglycerides in comparison with the control group (in words)” value (shortened to “blood triglycerides in comparison”) (blood triglycerides [1]; 1 mg/kg alone, p<0.05) was “a significant reduction”, the “Reduction rate of blood triglycerides (%)” value (“Reduction rate … (%)” below) (blood triglycerides [1]; [3]) was 25% and the “blood triglycerides in comparison” value (blood triglycerides [2]; 1 mg/kg alone, p<0.05) was “a significant reduction”. For the same molecule, the “Reduction rate … (%)” value (blood triglycerides [2]; [3]) was 25%.
In the case of O=C(O)C[C@H](O)C[C@H](O)/C=C/c1c(C2CC2)nc2ccccc2c1-c1ccc(F)cc1 [Pitavastatin Ca, (3R,5S,6E)-7-[2-cyclopropyl-4-(4-fluorophenyl)-3-quinolyl]-3,5-dihydroxy-6-heptenoic acid], the “blood triglycerides in comparison” value (blood triglycerides [2]; 10 mg/kg alone) was “a tendency to be lowered” and the “Reduction rate … (%)” value (blood triglycerides [2]; 10 mg/kg orally once a day for 14 days) was 20%.
In the case of CC(C)c1c(C(=O)Nc2ccccc2)c(-c2ccccc2)c(-c2ccc(F)cc2)n1CC[C@@H](O)C[C@@H](O)CC(=O)O [Atorvastatin Ca, atorvastatin], the “blood triglycerides in comparison” value (blood triglycerides [1]; 50 mg/kg alone) was “a tendency to be lowered” and the “Reduction rate … (%)” value (blood triglycerides [1]; 50 mg/kg orally once a day for 14 days) was 7%.
